According to ChEMBL document CHEMBL1201862, “PubChem BioAssay data set” (2004):
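How tested: cells in 96-well plates exposed to compound for 48 hours at five concentrations. GI50 marks 50% less growth.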 The source made the active and inactive calls. Rule as the data show it: active = GI50 up to about 1.1 µM and inactive = higher.

What was measured:
Experiment in all cases: NCI anticancer screen, dose series, 48 h
[1] = tested on: Hs-578T
[2] = tested on: SR
[3] = tested on: LOX IMVI
[4] = tested on: NCI-H460
[5] = tested on: SNB-75
[6] = tested on: SF-268
[7] = tested on: RXF 393
[8] = tested on: SK-MEL-5
[9] = tested on: NCI-H226
[10] = tested on: SK-MEL-28
[11] = tested on: COLO 205
[12] = tested on: A498
[13] = tested on: HCC 2998
[14] = tested on: MDA-N
[15] = tested on: T47D
[16] = tested on: SN12C
[17] = tested on: TK-10
[18] = tested on: K562
[19] = tested on: OVCAR-8
[20] = tested on: OVCAR-4
[21] = tested on: MDA-MB-435
[22] = tested on: PC-3
[23] = tested on: NCI-H522
[24] = tested on: MCF7
[25] = tested on: HCT-116
[26] = tested on: IGROV-1
[27] = tested on: NCI/ADR-RES
[28] = tested on: UACC-62
[29] = tested on: CAKI-1
[30] = tested on: KM12
[31] = tested on: SF-539
[32] = tested on: A549
[33] = tested on: SNB-19
[34] = tested on: ACHN
[35] = tested on: SK-MEL-2
[36] = tested on: M14
[37] = tested on: Malme-3M
[38] = tested on: UACC-257
[39] = tested on: NCI-H23
[40] = tested on: CCRF-CEM
[41] = tested on: EKVX
[42] = tested on: HCT-15
[43] = tested on: HOP-62
[44] = tested on: MDA-MB-231
[45] = tested on: RPMI-8226
[46] = tested on: OVCAR-3
[47] = tested on: UO-31
[48] = tested on: U-251
[49] = tested on: SW-620
[50] = tested on: HOP-92
[51] = tested on: SK-OV-3
[52] = tested on: SF-295
[53] = tested on: OVCAR-5
[54] = tested on: MOLT-4
[55] = tested on: HL-60
[56] = tested on: HT-29
[57] = tested on: DU-145
[58] = tested on: BT-549
[59] = tested on: 786-0
[60] = tested on: SNB-78
[61] = tested on: DMS-114
[62] = tested on: XF498
[63] = tested on: DLD-1

CCOC(=O)c1c(Br)c(-c2ccc(Br)cc2)c(Br)n1C
GI50 [1]: 34.3 µM (inactive)
GI50 [2]: 3.22 µM (inactive)
GI50 [3]: 7.16 µM (inactive)
GI50 [4]: 28.4 µM (inactive)
GI50 [5]: 3.18 µM (inactive)
GI50 [6]: 19.7 µM (inactive)
GI50 [7]: 11.2 µM (inactive)
GI50 [8]: 17.5 µM (inactive)
GI50 [9]: 15.5 µM (inactive)
GI50 [10]: 15.3 µM (inactive)
GI50 [11]: 14.9 µM (inactive)
GI50 [12]: 18.2 µM (inactive)
GI50 [13]: 19.5 µM (inactive)
GI50 [14]: 3.4 µM (inactive)
GI50 [15]: 10.5 µM (inactive)
GI50 [16]: 25.2 µM (inactive)
GI50 [17]: 39 µM (inactive)
GI50 [18]: 5.08 µM (inactive)
GI50 [19]: 28.8 µM (inactive)
GI50 [20]: 19.3 µM (inactive)
GI50 [21]: 3.15 µM (inactive)
GI50 [22]: 19.4 µM (inactive)
GI50 [23]: 9.38 µM (inactive)
GI50 [24]: 22.8 µM (inactive)
GI50 [25]: 6.32 µM (inactive)
GI50 [26]: 12.2 µM (inactive)
GI50 [27]: 5.38 µM (inactive)
GI50 [28]: 9.27 µM (inactive)
GI50 [29]: 17.1 µM (inactive)
GI50 [30]: 10.2 µM (inactive)
GI50 [31]: 21.3 µM (inactive)
GI50 [32]: 23.6 µM (inactive)
GI50 [33]: 28.3 µM (inactive)
GI50 [34]: 23.4 µM (inactive)
GI50 [35]: > 10 µM (inactive)
GI50 [36]: 18.8 µM (inactive)
GI50 [37]: 18.5 µM (inactive)
GI50 [38]: 20.7 µM (inactive)
GI50 [39]: 22.7 µM (inactive)
GI50 [40]: 14.7 µM (inactive)
GI50 [41]: 8.99 µM (inactive)
GI50 [42]: 13 µM
GI50 [43]: 19.9 µM (inactive)
GI50 [44]: 13.6 µM (inactive)
GI50 [45]: 17.9 µM (inactive)
GI50 [46]: 14.7 µM (inactive)
GI50 [47]: 17.9 µM (inactive)
GI50 [48]: 18 µM (inactive)
GI50 [49]: 23.2 µM (inactive)
GI50 [50]: 7.31 µM (inactive)
GI50 [51]: 32.8 µM (inactive)
GI50 [52]: 17.9 µM (inactive)
GI50 [53]: 19.4 µM (inactive)
GI50 [54]: 16.4 µM (inactive)
GI50 [55]: 6.59 µM (inactive)
GI50 [56]: 11.7 µM (inactive)
GI50 [57]: 31.1 µM (inactive)
GI50 [58]: 14.5 µM (inactive)
GI50 [59]: 20.5 µM (inactive)

Cc1cc(-c2ccc(/N=N/c3ccc4c(S(=O)(=O)O)cc(S(=O)(=O)O)c(N)c4c3O)c(C)c2)ccc1/N=N/c1ccc2c(S(=O)(=O)O)cc(S(=O)(=O)O)c(N)c2c1O
GI50 [3]: > 100 µM (inactive)
GI50 [5]: > 100 µM (inactive)
GI50 [8]: > 100 µM (inactive)
GI50 [11]: > 100 µM (inactive)
GI50 [20]: > 63.4 µM (inactive)
GI50 [60]: > 100 µM (inactive)
GI50 [25]: > 100 µM (inactive)
GI50 [26]: > 100 µM (inactive)
GI50 [61]: > 100 µM (inactive)
GI50 [28]: > 100 µM (inactive)
GI50 [30]: > 100 µM (inactive)
GI50 [33]: > 100 µM (inactive)
GI50 [37]: > 100 µM (inactive)
GI50 [40]: > 100 µM (inactive)
GI50 [43]: > 100 µM (inactive)
GI50 [45]: > 100 µM (inactive)
GI50 [62]: > 100 µM (inactive)
GI50 [50]: > 100 µM (inactive)
GI50 [54]: > 100 µM (inactive)
GI50 [63]: > 100 µM (inactive)

COc1cc(-c2oc3c(OC)c(O)cc(O)c3c(=O)c2OC)ccc1O
GI50 [1]: 1.84 µM (inactive)
GI50 [2]: 3.24 µM (inactive)
GI50 [3]: 4.12 µM (inactive)
GI50 [4]: 6.95 µM (inactive)
GI50 [5]: 4.02 µM (inactive)
GI50 [6]: 3.08 µM (inactive)
GI50 [7]: 3.73 µM (inactive)
GI50 [8]: 6.31 µM (inactive)
GI50 [9]: 12.9 µM (inactive)
GI50 [10]: 12.9 µM (inactive)
GI50 [11]: 29.1 µM (inactive)
GI50 [12]: 4.2 µM (inactive)
GI50 [13]: 10.9 µM (inactive)
GI50 [14]: 10.6 µM (inactive)
GI50 [15]: 2.38 µM (inactive)
GI50 [16]: 13.1 µM (inactive)
GI50 [17]: 12.4 µM (inactive)
GI50 [18]: 5.12 µM (inactive)
GI50 [19]: 8.17 µM (inactive)
GI50 [20]: 8.41 µM (inactive)
GI50 [21]: 7.35 µM (inactive)
GI50 [22]: 6.44 µM (inactive)
GI50 [23]: 8.17 µM (inactive)
GI50 [24]: 19.7 µM (inactive)
GI50 [25]: 6.4 µM (inactive)
GI50 [26]: 3.09 µM (inactive)
GI50 [27]: 10.8 µM (inactive)
GI50 [28]: 3.61 µM (inactive)
GI50 [29]: 3.13 µM (inactive)
GI50 [30]: 10 µM (inactive)
GI50 [31]: 5.47 µM (inactive)
GI50 [32]: 7.29 µM (inactive)
GI50 [33]: 41.4 µM (inactive)
GI50 [34]: 3.99 µM (inactive)
GI50 [35]: 2.75 µM (inactive)
GI50 [36]: 4.12 µM (inactive)
GI50 [37]: > 47.8 µM (inactive)
GI50 [38]: 26 µM (inactive)
GI50 [39]: 16.7 µM (inactive)
GI50 [40]: 3.12 µM (inactive)
GI50 [41]: 21.8 µM (inactive)
GI50 [42]: 3.67 µM
GI50 [43]: 3 µM (inactive)
GI50 [44]: 7.76 µM (inactive)
GI50 [45]: 4.09 µM (inactive)
GI50 [46]: 2.68 µM (inactive)
GI50 [47]: 3.08 µM (inactive)
GI50 [48]: 3.66 µM (inactive)
GI50 [49]: 13.8 µM (inactive)
GI50 [50]: 3.83 µM (inactive)
GI50 [51]: 1.55 µM (inactive)
GI50 [52]: 17.5 µM (inactive)
GI50 [53]: 22.3 µM (inactive)
GI50 [54]: 4.92 µM (inactive)
GI50 [55]: 3.56 µM (inactive)
GI50 [56]: 37.4 µM (inactive)
GI50 [57]: 7.06 µM (inactive)
GI50 [58]: 5.18 µM (inactive)
GI50 [59]: 16.9 µM (inactive)
